# Reference: patent publication US4508728A, “Method of treating inflammatory diseases” (priority 1984, dated 1985)
# What was measured:
# hemorrohoid = assay: Clinical Case No. 7: hemorrhoid; format: in vivo, human; set-up: key: -: Non effective; +: Effective; ++: Remarkably effective; details: suppository 10 mg
# Method: 1.7 g suppository, one suppository containing 10 mg homocarnosine, was used for the following patients suffering from hemorrohoid.
# *Conjointly administered with 0.5% homocarnosine ointment.
# herpes zoster = assay: Clinical Case No. 4: herpes zoster; format: in vivo, human; details: person
# Excerpt: 5% homocarnosine paste was applied to a case of herpes zoster.
# Region: The herpes zoster extended from the lower part of right breast to the side of body.
# Course of the complaint: The patient came for consultation after three days of subjective complaint. 1 g of 5% homocarnosine paste was applied to the diseased region.
# surgical wounds = assay: Wound healing: tensile strength of sutured surgical incision on the 7th day; format: in vivo, rat (Wister strain male); details: for Tensile Strength, % of control / Tensile Strength, X ± S.E.: daily for 7 days
# Method: The healing effect of surgical wounds by homocarnosine was assessed in the following manner. Six-week old Wister strain male rats weighing around 170 g each were used. The rats which had their backs denuded over an extensive area by clippers were given an incision of about 4 cm by a sharp surgical knife along the dorsal medial line under ether anesthesia. A dosage of penicillin was administered to prevent the possibility of infective suppuration and the incision was uniformly sutured with silk threads at 3 spots. Homocarnosine was made into isotonic solution which was subcutaneously injected every day into 8 places on both sides of the incision equally for 7 days. Physiologic saline was employed as a control. The threads were removed 4 days after the formation of the incisions and the experimental animals were put to death on the 7th day under ether anesthesia, and 3 pieces of dosal skin, 3 cm in length and 1 cm in width each, were surgically cut off in such manner that the incision line lay at the middle of the piece. One side of each piece of skin was fixed and the other was pulled and the force required to separate the skin at the point the incision had been made was taken to indicate the tensile strength.
# dermatitis = assay: Clinical Case No. 9: various types of dermatitis; format: in vivo, human; set-up: key to Effect: -: Non effective; +: Effective; ++: Remarkably effective
# Excerpt: 0.5% homocarnosine in the form of an ointment was applied to the following patients suffering from various types of dermatitis.
# decubital ulcer = assay: Clinical Case No. 6: decubital ulcer; format: in vivo, human; set-up: key: -: Non effective; +: Effective; ++: Remarkably effective
# Excerpt: 1% homocarnosine ointment was applied to the cases of decubital ulcer as follows.
# granulation = assay: Granulation formation, formalin filter paper method (FFP method), with quantitative analysis of hydroxyprolin; format: in vivo, rat (Wister strain male); details: for Hydroxyproline / Wet weight of granulation: once daily for 7 days
# Excerpt: The promotive action of granulation by homocarnosine was examined by a routine formalin filter paper method (FFP method) and the quantitative analysis of hydroxyprolin. For experimental purposes, use was made of groups of 5 or 6 six-week old Wister strain male rats weighing around 170 g each. The hair was sheared from the backs of these animals using clippers and under ether anesthesia they were given an incision of about 1 cm by a shap surgical knife along the dorsal median line. A piece of filter paper (No. 26 product by Toyo Filter Paper Co.) was cut into circles having a diameter of 6.7 mm which were immersed in a 7% formalin solution. In each rat, these filter paper circles, 4 altogether, were inserted underneath the skin of the right and left scapular areas and under the skin about 4 cm to the rear or these areas, two circles on the right side and two on the left side. A dose of penicillin was given to prevent the possibility of infective suppuration subcutaneously and the incised portion was sutured by use of clips. On the second day after the insertion of formalin immersed filter paper, the sutures were removed and on the seventh day they were put to death under ether anesthesia by cutting the carotid vessels, from which the mass of granulations that had been formed by formalin immersed filter paper was taken out. After the entire granular mass containing filter paper was measured for wet weight, the mass from the left scapular area was used for the quantitative analysis of hydroxyprolin. Homocarnosine was prepared in an isotonic solution and was injected into the animals either subcutaneously or peritoneally once daily for seven days after the suture. When an oral administration was needed, it was made in a 15% solution and was poured into the esophagus. The mass of granulations freed from the filter paper was defatted by ethanol-ether and after being rendered in the gelatin state by an autoclave it was added with concentrated hydrochloric acid and was hydrolyzed overnight at a temperature of 105° to 110° C. After it was thickened and dried at 105° to 110° C., the product was added with 0.02N hydrochloric acid and its hydroxyprolin was quantified by a Hitachi-835 amino acid automatic analyzer in an effort to estimate the amount of collagen that had been synthesized.
# [1] = system: inflammation of respiratory tract; assay: Clinical Case No. 8: inflammation of respiratory tract, nebulizer; format: in vivo, human; set-up: key: -: Non effective; +: Effective; ++: Remarkably effective; details: 0.1% solution
# Excerpt: 0.1% homocarnosine solution in physiological saline was used for the following patients suffering from inflammation of respiratory tract with the aid of nebulizer.
# angulus infectiosus = assay: Clinical Case No. 3: angulus infectiosus; format: in vivo, human; set-up: key: those cases in which the wounds became closed on the day following homocarnosine administration were judged as ++; those in which three applications were further needed before favorable results were obvious were judged as +
# Excerpt: 0.5% homocarnosine in the form of a paste was applied in cases of angulus infectiosus in a dosage of 0.8 g on the basis of three times daily.
# In assessing the effect of treatment, those cases in which the wounds became closed on the day following homocarnosine administration were judged as ++ and those in which three applications were further needed before favorable results were obvious were judged as +.
# Solubility in water = format: physicochemical
# dental extraction wounds = assay: Clinical Case No. 1: dental extraction wound; format: in vivo, human; set-up: key to Cure (Wound Healing): ++: Found to be highly effective compared with ordinary therapy.; +: Effective; -: Noneffective; key to Postoperative pains, 2 hours / Postoperative pains, 12 hours / Postoperative pains, 24 hours: -: No subjective pains.; ±: Though subjective pains were present, no analgesic was used.; +: Subjective pains and an analgesic was administered
# Method: 0.5% homocarnosine injection solution was administered to the wound brought about by a dental extraction.
# aftha stomatitis = assay: Clinical Case No. 2: aftha stomatitis; format: in vivo, human; set-up: key: The patients in whom the pain disappeared immediately after injection of homocarnosine solution with no subsequent pain complaints on the following day, and the ulcerated area had shrunk postoperatively were assessed as favorable ++; details: 0.1 ml of 0.5% solution injected
# Method: Patients who complained of the aftha stomatitis were injected with 0.5% homocarnosine solution.
# The patients in whom the pain disappeared immediately after injection of homocarnosine solution with no subsequent pain complaints on the following day, and the ulcerated area had shrunk postoperatively were assessed as favorable ++.
# cervical erosion = assay: Clinical Case No. 5: cervical erosion; format: in vivo, human; details: suppository 20 mg
# Method: 1.7 g suppository, one suppository containing 20 mg homocarnosine, was used for the following patients suffering from cervical erosion.
# [2] = case 1, horizontal impaction, 0.3 ml of 0.5% injection solution
# [3] = case 2, alveolar osteitis, 0.3 ml of 0.5% injection solution
# [4] = case 3, traumatic bone fracture, 0.1 ml of 0.5% injection solution
# [5] = case 4, dental root cyst, 0.2 ml of 0.5% injection solution
# [6] = case 5, alveolar osteitis, 0.3 ml of 0.5% injection solution
structure (smiles),measurement,setting,value
"NCCCC(=O)N[C@@H](Cc1cnc[nH]1)C(=O)O [Homocarnosine, L-histidinyl-γ-aminobutylic acid]",Effect,"hemorrohoid; case 1, ractal bleeding, 1 tablet daily for 4 days, conjointly with 0.5% homocarnosine ointment",++
same,Effect,"hemorrohoid; case 2, inner hemorrhoids, 1 tablet daily for 14 days",++
same,Relapse,herpes zoster; 1 g of 5% paste,no relapse of the symptom
same,Pains,"herpes zoster; 1 g of 5% paste, in about one hour",the pains disappeared completely
same,Cysts,"herpes zoster; 5% paste, 1 g five times daily",discolored and dry
same,Herpes symptom,"herpes zoster; 5% paste, 1 g five times daily",cured after seven days
same,"Tensile Strength, % of control","surgical wounds; 0.06 mg/rat i.d., 18 skins",96.1 % of control
same,"Tensile Strength, X ± S.E.","surgical wounds; 0.06 mg/rat i.d., 18 skins",436.8 ± 27.6
same,"Tensile Strength, % of control","surgical wounds; 0.6 mg/rat i.d., 15 skins",108.6 % of control
same,"Tensile Strength, X ± S.E.","surgical wounds; 0.6 mg/rat i.d., 15 skins",493.3 ± 27.5
same,"Tensile Strength, % of control","surgical wounds; 6.0 mg/rat i.d., 18 skins",118.8 % of control
same,"Tensile Strength, X ± S.E.","surgical wounds; 6.0 mg/rat i.d., 18 skins, p < 0.01",539.6 ± 41.5
same,"Effect on surgical wounds, tensile strength on the 7th day (in words)","surgical wounds; subcutaneous, 0.6 and 6.0 mg/rat",efficacy is indicated by the tensile strength of wounds on the 7th day
same,Effect,"dermatitis; case 1, allergic dermatitis, 0.5% ointment 1.0 g twice daily",++
same,Effect,"dermatitis; case 2, geriatric itchiness, 0.5% ointment 0.5 g before sleeping",++
same,Partial ulcer recovery (in words),"dermatitis; case 2, geriatric itchiness, 0.5% ointment 0.5 g, partial, after one application",ulcer recovery was noted
same,Effect,"dermatitis; case 3, eczema, 0.5% ointment 1.0 g twice daily for 2 days",++
same,Effect,"dermatitis; case 4, burn (back of left hand), 0.5% ointment 1.0 g once daily for 4 days",++
same,Effect,"decubital ulcer; case 1, back (2 × 4 cm), 1% ointment 0.5-1.0 g once daily for 4 days",++
same,Effect,"decubital ulcer; case 2, nates (2 × 3 cm), 1% ointment 0.5-1.0 g once daily for 8 days",++
same,Hydroxyproline,"granulation; 3 mg/kg i.p., 7 granuloma",97.8 ± 10.1 % of control
same,Wet weight of granulation,"granulation; 3 mg/kg i.p., 18 granuloma",96.1 ± 5.6 % of control
same,Hydroxyproline,"granulation; 10 mg/kg i.p., 9 granuloma",127.6 ± 14.5 % of control
same,Wet weight of granulation,"granulation; 10 mg/kg i.p., 20 granuloma, p < 0.01",121.3 ± 5.7 % of control
same,Hydroxyproline,"granulation; 30 mg/kg i.p., 8 granuloma",123.9 ± 8.0 % of control
same,Wet weight of granulation,"granulation; 30 mg/kg i.p., 19 granuloma, p < 0.025",126.6 ± 7.3 % of control
same,Wet weight of granulation,"granulation; 50 mg/kg i.p., 20 granuloma",133.7 ± 7.2 % of control
same,Wet weight of granulation,"granulation; 70 mg/kg i.p., 24 granuloma",131.7 ± 7.8 % of control
same,Wet weight of granulation,"granulation; 90 mg/kg i.p., 20 granuloma",135.6 ± 7.2 % of control
same,Granulation formation (in words),"granulation; 10, 30, 50, 70 and 90 mg/kg (i.p.)",effective in promoting granulation formation
same,Hydroxyprolin amount (in words),granulation; relative to wet weight of granulations,increased in proportion to an increase in the wet weight of granulations
same,Effect,"[1]; case 1, allergic rhinitis, 0.8 ml × 2",++
same,Effect,"[1]; case 2, inflamed respiratory tract, 1.0 ml × 1",++
same,Effect,"[1]; case 3, inflamed respiratory tract, 1.0 ml × 3",++
same,Effect,"[1]; case 4, tonsillitis, 1.0 ml × 3",++
same,Effect,"[1]; case 5, asthma, 1.0 ml twice daily for 10 days",++
same,Effect,"angulus infectiosus; person five, right, 0.5% paste 0.8 g × 3",++
same,Effect,"angulus infectiosus; person four, right and left, 0.5% paste 0.8 g × 6",+
same,Effect,"angulus infectiosus; person one, right, 0.5% paste 0.8 g × 3",++
same,Effect,"angulus infectiosus; person three, right, 0.5% paste 0.8 g × 3",++
same,Effect,"angulus infectiosus; person two, right and left, 0.5% paste 0.8 g × 6",+
same,Effect,"angulus infectiosus; person, left, 0.5% paste 0.8 g × 3",++
same,Solubility in water,Solubility in water,readily soluble in water
same,Cure (Wound Healing),dental extraction wounds; [2],++
same,"Postoperative pains, 2 hours",dental extraction wounds; [2],-
same,"Postoperative pains, 12 hours",dental extraction wounds; [2],±
same,"Postoperative pains, 24 hours",dental extraction wounds; [2],-
same,Cure (Wound Healing),dental extraction wounds; [3],++
same,"Postoperative pains, 2 hours",dental extraction wounds; [3],-
same,"Postoperative pains, 12 hours",dental extraction wounds; [3],-
same,"Postoperative pains, 24 hours",dental extraction wounds; [3],-
same,Cure (Wound Healing),dental extraction wounds; [4],++
same,"Postoperative pains, 2 hours",dental extraction wounds; [4],-
same,"Postoperative pains, 12 hours",dental extraction wounds; [4],-
same,"Postoperative pains, 24 hours",dental extraction wounds; [4],-
same,Cure (Wound Healing),dental extraction wounds; [5],++
same,"Postoperative pains, 2 hours",dental extraction wounds; [5],-
same,"Postoperative pains, 12 hours",dental extraction wounds; [5],+
same,"Postoperative pains, 24 hours",dental extraction wounds; [5],-
same,Cure (Wound Healing),dental extraction wounds; [6],++
same,"Postoperative pains, 2 hours",dental extraction wounds; [6],-
same,"Postoperative pains, 12 hours",dental extraction wounds; [6],-
same,"Postoperative pains, 24 hours",dental extraction wounds; [6],-
same,Effect,"aftha stomatitis; case 1, isolative aphtha",++
same,Effect,"aftha stomatitis; case 2, tip of the tongue, person",++
same,Effect,"aftha stomatitis; case 3, lower surface of the tongue, person",++
same,Effect (in words),"cervical erosion; case 1, C II, 2 tablets in one day",Cured
same,Effect (in words),"cervical erosion; case 2, C IIIa, 1 tablet daily for 7 days",Cured
same,Effect (in words),"cervical erosion; case 3, C IIIb, 2 tablets daily for 7 days",Cured
same,Effect (in words),"cervical erosion; case 4, C IIIc, 2 tablets daily for 14 days",Cured
